Source: ChEMBL document CHEMBL1275454, “Assessment of Aspergillus fumigatus burden in pulmonary tissue of guinea pigs by quantitative PCR, galactomannan enzyme immunoassay, and quantitative culture” (2008)
Activity calls are given as the source filed them. The rule behind the calls is not given here.

What was measured:
Aspergillus fumigatus [1] = assay: Antimicrobial activity against Aspergillus fumigatus AF293 infected in hartley guinea pig assessed as survival rate at 10 mg/kg, po BID for 8 days postinfection; type: functional
Aspergillus fumigatus [2] = assay: Antimicrobial activity against Aspergillus fumigatus AF293 infected in hartley guinea pig assessed as decreased fungal burden in lung at 10 mg/kg, po BID for 8 days postinfection; type: functional, organism-based; set-up: dose 10 mg/kg
Aspergillus fumigatus [3] = assay: Antimicrobial activity against Aspergillus fumigatus AF293 infected in hartley guinea pig assessed as decreased fungal burden in lung at 10 mg/kg, po BID after 4 to 6 days postinfection; type: functional, organism-based; set-up: dose 10 mg/kg
Aspergillus fumigatus [4] = assay: Antimicrobial activity against Aspergillus fumigatus AF293 infected in hartley guinea pig assessed as log reduction in […] fungal burden at 10 mg/kg, po BID after 4 to 7 days postinfection; type: functional
Aspergillus fumigatus [5] = assay: Antimicrobial activity against Aspergillus fumigatus AF293 infected in hartley guinea pig assessed as time to death at 10 mg/kg, po BID for 8 days postinfection; type: functional; conditions: AF293, in Cavia porcellus, 192 h

C[C@@H](c1ncncc1F)[C@](O)(Cn1cncn1)c1ccc(F)cc1F [VORICONAZOLE]
Survival (Aspergillus fumigatus [1]): 9.13 days
Activity (Aspergillus fumigatus [2]): Active
Activity (Aspergillus fumigatus [3]): Active
FC (Aspergillus fumigatus [4]): 2.98
survival at 10 mg/kg (Aspergillus fumigatus [5]): 62.5%
